Results from patent US11006626B2, “Compounds for protection of cells” (Sulfateq B.V., priority 2012, dated 2021).

Key:
apherese blood platelets = assay: Apheresis platelets stored with Sul 136, platelet activation with ADP and TRAP by flow cytometry (CD62p); assay type: cell-based; design: Flow cytometry ADP / Flow cytometry TRAP: unit not given here; details: for Flow cytometry ADP / Flow cytometry P-selectin MFI / Flow cytometry TRAP: stored at 4° C. with Sul 136
Procedure: 300 μM suspension of Sul 136 is added with a procedure, which keeps the bag content sterile and the Sul 136 is kept in suspension by frequent whirling and stored at 37° C. before it is added to the freshly harvested platelets. The Sul 136 suspension is added to three platelet bags directly from the bag. After addition, the content of the platelet bag is gently mixed. After 2 hours the first sample is drawn with a seal-docked sample bag. The sample bag is disconnected by welding and from this sample bag the samples are taken for hematology analyzing, aggregometer tests and the flow-cytometry tests. Swirling in the bag is reported by experience of the laboratory worker in the standard format. Platelets without Sul 136 put on a flatbed shaker and stored at room temperature were used as control. Another control is stored at 4° C. Platelet samples in which Sul 136 is added, are stored without shaking in a refrigerator at 4° C.
Platelet activation was performed on a Beckman Coulter FC 500 flowcytometer using CD 41 PE, CD 62p FITC, IgG1 FITC/IgG1 PE antibodies of a Beckman Coulter kit.
40 μl Dilution buffer was brought in about 15 minutes to 37° C.; 10 μl IgG FITC/IgG PE+10 μl CD41 PE was added and mixed with Vortex, incubated 5 min at room temperature; 1000 μl cold HBSS buffer was added; measurement in flowcytometer was performed.
40 μl Dilution buffer was brought in about 15 minutes to 37° C.; 10 μl CD41 PE+5 μl CD62 FITC was added and mixed with Vortex, incubated during 5 min. at room temperature; 1000 μl cold HBSS buffer was added; measurement in flowcytometer was performed.
36 μl Dilution buffer+4 μl ADP was brought in about 15 minutes to 37° C.; 10 μl CD41 PE+5 μl CD62 FITC was added and mixed with Vortex, incubated during 5 min. at room temperature; 1000 μl cold HBSS buffer was added; measurement in flowcytometer was performed.
36 μl Dilution buffer+4 μl TRAP was brought in about 15 minutes to 37° C.; 10 μl CD41 PE+5 μl CD62 FITC was added and mixed with Vortex; incubateed during 5 min. at room temperature; 1000 μl cold HBSS buffer was added; measurement in flowcytometer was performed.

PRP platelets = PRP platelets stored at 4° C. with Sul 136, number of cells that survived; assay type: cell-based; details: for number of cells in % relative to the number of cells at time 0: 4° C.
Procedure: […] The blood platelets with the compound were then stored at 4° C.
and tested as follows: • The color and coagulation properties were visually analysed. • The thrombocyte cells that survived were counted and it was evaluated whether the thrombocytes were aggregated. • It was evaluated if the thrombocytes still were able to function after stimulation by the addition of ADP or under influence of collagen in a 96 well plate. • The adhesion was evaluated, meaning the ability of the platelets to bind collagen in a 6 well plate preincubated with collagen. • Via an ELISA assay, it was evaluated whether thromboxane was secreted from the platelets. Thromboxane facilitates aggregation and is produced by activated blood platelets.
PRP platelets were tested with the addition of Sul 136. […] The number of cells are given in % relative to the number of cells at time 0. 66% of the platelets stored at room temperature survived after 216 hours. Only 42.3% of the cells stored at 4° C. survived after 216 hours.

Cc1c(C)c2c(c(C)c1O)CCC(C)(C(=O)N1CCN(CC(=O)O)CC1)O2 (racemic) [SUL - 136, 2-(4-(6-hydroxy-2,5,7,8-tetramethylchroman-2-carbonyl)piperazin-1-yl)acetic acid]
Flow cytometry ADP (apherese blood platelets; Donor 2, Day 1): 2.12
Flow cytometry P-selectin MFI (apherese blood platelets; Donor 2, Day 1): 1.67 MFI
Flow cytometry TRAP (apherese blood platelets; Donor 2, Day 1): 1.88
Flow cytometry ADP (apherese blood platelets; Donor 2, Day 2): 2.53
Flow cytometry P-selectin MFI (apherese blood platelets; Donor 2, Day 2): 2.13 MFI
Flow cytometry TRAP (apherese blood platelets; Donor 2, Day 2): 2.35
Flow cytometry ADP (apherese blood platelets; Donor 2, Day 3): 3.21
Flow cytometry P-selectin MFI (apherese blood platelets; Donor 2, Day 3): 2.59 MFI
Flow cytometry TRAP (apherese blood platelets; Donor 2, Day 3): 2.76
Flow cytometry ADP (apherese blood platelets; Donor 2, Day 5): 3.19
Flow cytometry P-selectin MFI (apherese blood platelets; Donor 2, Day 5): 2.95 MFI
Flow cytometry TRAP (apherese blood platelets; Donor 2, Day 5): 3.16
Flow cytometry ADP (apherese blood platelets; Donor 2, Day 8): 3.08
Flow cytometry P-selectin MFI (apherese blood platelets; Donor 2, Day 8): 2.99 MFI
Flow cytometry TRAP (apherese blood platelets; Donor 2, Day 8): 3.22
Flow cytometry ADP (apherese blood platelets; Donor 2, Day 10): 2.83
Flow cytometry P-selectin MFI (apherese blood platelets; Donor 2, Day 10): 2.76 MFI
Flow cytometry TRAP (apherese blood platelets; Donor 2, Day 10): 2.96
Flow cytometry ADP (apherese blood platelets; Donor 2, Day 12): 2.62
Flow cytometry P-selectin MFI (apherese blood platelets; Donor 2, Day 12): 2.63 MFI
Flow cytometry TRAP (apherese blood platelets; Donor 2, Day 12): 2.73
Flow cytometry ADP (apherese blood platelets; Donor 2, Day 19): 1.99
Flow cytometry P-selectin MFI (apherese blood platelets; Donor 2, Day 19): 2.01 MFI
Flow cytometry TRAP (apherese blood platelets; Donor 2, Day 19): 2.14
Flow cytometry ADP (apherese blood platelets; Donor 3, Day 1): 2.71
Flow cytometry P-selectin MFI (apherese blood platelets; Donor 3, Day 1): 1.90 MFI
Flow cytometry TRAP (apherese blood platelets; Donor 3, Day 1): 2.08
Flow cytometry ADP (apherese blood platelets; Donor 3, Day 2): 3.49
Flow cytometry P-selectin MFI (apherese blood platelets; Donor 3, Day 2): 2.82 MFI
Flow cytometry TRAP (apherese blood platelets; Donor 3, Day 2): 3.62
Flow cytometry ADP (apherese blood platelets; Donor 3, Day 3): 4.96
Flow cytometry P-selectin MFI (apherese blood platelets; Donor 3, Day 3): 3.84 MFI
Flow cytometry TRAP (apherese blood platelets; Donor 3, Day 3): 4.42
Flow cytometry ADP (apherese blood platelets; Donor 3, Day 5): 4.84
Flow cytometry P-selectin MFI (apherese blood platelets; Donor 3, Day 5): 4.50 MFI
Flow cytometry TRAP (apherese blood platelets; Donor 3, Day 5): 5.04
Flow cytometry ADP (apherese blood platelets; Donor 3, Day 8): 4.91
Flow cytometry P-selectin MFI (apherese blood platelets; Donor 3, Day 8): 4.82 MFI
Flow cytometry TRAP (apherese blood platelets; Donor 3, Day 8): 5.24
Flow cytometry ADP (apherese blood platelets; Donor 3, Day 10): 4.25
Flow cytometry P-selectin MFI (apherese blood platelets; Donor 3, Day 10): 4.37 MFI
Flow cytometry TRAP (apherese blood platelets; Donor 3, Day 10): 5.04
Flow cytometry ADP (apherese blood platelets; Donor 3, Day 12): 3.84
Flow cytometry P-selectin MFI (apherese blood platelets; Donor 3, Day 12): 3.89 MFI
Flow cytometry TRAP (apherese blood platelets; Donor 3, Day 12): 4.20
Flow cytometry ADP (apherese blood platelets; Donor 3, Day 19): 2.37
Flow cytometry P-selectin MFI (apherese blood platelets; Donor 3, Day 19): 2.22 MFI
Flow cytometry TRAP (apherese blood platelets; Donor 3, Day 19): 2.01
Flow cytometry ADP (apherese blood platelets; donor 1, Day 1): 3.07
Flow cytometry P-selectin MFI (apherese blood platelets; donor 1, Day 1): 2.09 MFI
Flow cytometry TRAP (apherese blood platelets; donor 1, Day 1): 3.57
Flow cytometry ADP (apherese blood platelets; donor 1, Day 2): 3.28
Flow cytometry P-selectin MFI (apherese blood platelets; donor 1, Day 2): 3.04 MFI
Flow cytometry TRAP (apherese blood platelets; donor 1, Day 2): 3.78
Flow cytometry ADP (apherese blood platelets; donor 1, Day 3): 4.12
Flow cytometry P-selectin MFI (apherese blood platelets; donor 1, Day 3): 3.73 MFI
Flow cytometry TRAP (apherese blood platelets; donor 1, Day 3): 4.95
Flow cytometry ADP (apherese blood platelets; donor 1, Day 5): 4.20
Flow cytometry P-selectin MFI (apherese blood platelets; donor 1, Day 5): 4.12 MFI
Flow cytometry TRAP (apherese blood platelets; donor 1, Day 5): 5.55
Flow cytometry ADP (apherese blood platelets; donor 1, Day 8): 4.83
Flow cytometry P-selectin MFI (apherese blood platelets; donor 1, Day 8): 4.82 MFI
Flow cytometry TRAP (apherese blood platelets; donor 1, Day 8): 5.52
Flow cytometry ADP (apherese blood platelets; donor 1, Day 10): 4.46
Flow cytometry P-selectin MFI (apherese blood platelets; donor 1, Day 10): 4.48 MFI
Flow cytometry TRAP (apherese blood platelets; donor 1, Day 10): 5.52
Flow cytometry ADP (apherese blood platelets; donor 1, Day 12): 4.43
Flow cytometry P-selectin MFI (apherese blood platelets; donor 1, Day 12): 4.57 MFI
Flow cytometry TRAP (apherese blood platelets; donor 1, Day 12): 4.42
Flow cytometry ADP (apherese blood platelets; donor 1, Day 19): 2.74
Flow cytometry P-selectin MFI (apherese blood platelets; donor 1, Day 19): 2.92 MFI
Flow cytometry TRAP (apherese blood platelets; donor 1, Day 19): 2.76
flow cytometry tests (apherese blood platelets; stored at 4° C. with compound vs. platelets stored at room temperature): similar
number of cells in % relative to the number of cells at time 0 (PRP platelets; 10 min 0.001 mM, 0 h): 100%
number of cells in % relative to the number of cells at time 0 (PRP platelets; 10 min 0.001 mM, 72 h): 58.9%
number of cells in % relative to the number of cells at time 0 (PRP platelets; 10 min 0.001 mM, 216 h): 55.1%
number of cells in % relative to the number of cells at time 0 (PRP platelets; 10 min 0.01 mM, 0 h): 100%
number of cells in % relative to the number of cells at time 0 (PRP platelets; 10 min 0.01 mM, 72 h): 66.0%
number of cells in % relative to the number of cells at time 0 (PRP platelets; 10 min 0.01 mM, 216 h): 52.1%
number of cells in % relative to the number of cells at time 0 (PRP platelets; 10 min 0.1 mM, 0 h): 100%
number of cells in % relative to the number of cells at time 0 (PRP platelets; 10 min 0.1 mM, 72 h): 55.9%
number of cells in % relative to the number of cells at time 0 (PRP platelets; 10 min 0.1 mM, 216 h): 50.8%
number of cells in % relative to the number of cells at time 0 (PRP platelets; 10 min 1 mM, 0 h): 100%
number of cells in % relative to the number of cells at time 0 (PRP platelets; 10 min 1 mM, 72 h): 59.1%
number of cells in % relative to the number of cells at time 0 (PRP platelets; 10 min 1 mM, 216 h): 59.3%
number of cells in % relative to the number of cells at time 0 (PRP platelets; 10 min 10 mM, 0 h): 100%
number of cells in % relative to the number of cells at time 0 (PRP platelets; 10 min 10 mM, 72 h): 64.8%
number of cells in % relative to the number of cells at time 0 (PRP platelets; 10 min 10 mM, 216 h): 47.9%
number of cells in % relative to the number of cells at time 0 (PRP platelets; 60 min 0.001 mM, 0 h): 100%
number of cells in % relative to the number of cells at time 0 (PRP platelets; 60 min 0.001 mM, 72 h): 83.8%
number of cells in % relative to the number of cells at time 0 (PRP platelets; 60 min 0.001 mM, 216 h): 86.1%
number of cells in % relative to the number of cells at time 0 (PRP platelets; 60 min 0.01 mM, 0 h): 100%
number of cells in % relative to the number of cells at time 0 (PRP platelets; 60 min 0.01 mM, 72 h): 82.9%
number of cells in % relative to the number of cells at time 0 (PRP platelets; 60 min 0.01 mM, 216 h): 94.8%
number of cells in % relative to the number of cells at time 0 (PRP platelets; 60 min 0.1 mM, 0 h): 100%
number of cells in % relative to the number of cells at time 0 (PRP platelets; 60 min 0.1 mM, 72 h): 76.3%
number of cells in % relative to the number of cells at time 0 (PRP platelets; 60 min 0.1 mM, 216 h): 77.6%
number of cells in % relative to the number of cells at time 0 (PRP platelets; 60 min 1 mM, 0 h): 100%
number of cells in % relative to the number of cells at time 0 (PRP platelets; 60 min 1 mM, 72 h): 29.9%
number of cells in % relative to the number of cells at time 0 (PRP platelets; 60 min 1 mM, 216 h): 62.9%
number of cells in % relative to the number of cells at time 0 (PRP platelets; 60 min 10 mM, 0 h): 100%
number of cells in % relative to the number of cells at time 0 (PRP platelets; 60 min 10 mM, 72 h): 51.8%
number of cells in % relative to the number of cells at time 0 (PRP platelets; 60 min 10 mM, 216 h): 43.4%
platelets survived after storage (PRP platelets; storage of 72 and 216 hours at 4° C., vs. no compound): substantial more platelets survived
